# Test results as given in patent US20230287021A1, “COMPOUNDS, COMPOSITIONS AND METHODS FOR STABILIZING TRANSTHYRETIN AND INHIBITING TRANSTHYRETIN MISFOLDING” (Protego Biopharma, Inc., priority 2020, published 2023).
# Counter-ions that a name gives are not always drawn.
# Experiment: In vitro rat liver S9 stability assay, formation of tafamidis
# Assay type: in vitro ADME
# Conditions: rat liver S9, 37° C., 1 µM test compound
# Protocol: The test compound was added to liver S9 and incubated at 37° C. in a water bath at a concentration of 1 µM. At each time point (0, 5, 10, 20, 30 and 60 min), stop solution (tolbutamide plus labetalol) was added to precipitate protein and mixed thoroughly. After centrifugation, an aliquot of supernatant was analyzed by LC-MS/MS. The percentage of formation of active agent was calculated at each time point.
row,Compound,Formation of tafamidis at 60 min
1,"CN(C)[C@H]1C[C@@H]1OC(=O)c1ccc2nc(-c3cc(Cl)cc(Cl)c3)oc2c1 (relative stereo) [Compound 154, trans 2-(dimethylamino)cyclopropyl 2-(3,5-dichlorophenyl)benzo-[d]oxazole-6-carboxylate hydrochloride]",C (C is ≥50 to <75%)
2,CN(C)[C@H]1CCC[C@H]1OC(=O)c1ccc2nc(-c3cc(Cl)cc(Cl)c3)oc2c1 [Compound 134],A (A is <25%)
3,CN1CCCC1CCCOC(=O)c1ccc2nc(-c3cc(Cl)cc(Cl)c3)oc2c1 (stereo not drawn) [Compound 136],A (A is <25%)
4,[2H]C([2H])([2H])N(CCCOC(=O)c1ccc2nc(-c3cc(Cl)cc(Cl)c3)oc2c1)C([2H])([2H])[2H] [Compound 152],A (A is <25%)
5,CN(C)[C@@H]1CC[C@H]1OC(=O)c1ccc2nc(-c3cc(Cl)cc(Cl)c3)oc2c1 [Compound 120],B (B is ≥25 to <50%)
6,CN1CCC(CCCOC(=O)c2ccc3nc(-c4cc(Cl)cc(Cl)c4)oc3c2)C1 (stereo not drawn) [Compound 137],A (A is <25%)
7,CC[N+]1([O-])CCC(OC(=O)c2ccc3nc(-c4cc(Cl)cc(Cl)c4)oc3c2)C1 (stereo not drawn) [Compound 142],A (A is <25%)
8,O=C(OC1CCn2ccnc21)c1ccc2nc(-c3cc(Cl)cc(Cl)c3)oc2c1 (stereo not drawn) [Compound 149],D (D is ≥75%)
9,"Cc1ncc2n1CCC2OC(=O)c1ccc2nc(-c3cc(Cl)cc(Cl)c3)oc2c1 (stereo not drawn) [Compound 159, 3-methyl-6,7-dihydro-5H-pyrrolo[1,2-c]imidazol-7-yl 2-(3,5-dichlorophenyl)benzo[d]oxazole-6-carboxylate hydrochloride]",D (D is ≥75%)
10,CN(CCF)C(=O)c1ccc2nc(-c3cc(Cl)cc(Cl)c3)oc2c1 [Compound 173],A (A is <25%)
11,O=C(OC1CCN(CCF)C1)c1ccc2nc(-c3cc(Cl)cc(Cl)c3)oc2c1 (stereo not drawn) [Compound 147],B (B is ≥25 to <50%)
12,CN(C)[C@H]1C[C@@H](OC(=O)c2ccc3nc(-c4cc(Cl)cc(Cl)c4)oc3c2)C1 [Compound 121],A (A is <25%)
13,"CN1CC(OC(=O)c2ccc3nc(-c4cc(Cl)cc(Cl)c4)oc3c2)CC(F)(F)C1 (stereo not drawn) [Compound 171, 5,5-difluoro-1-methylpiperidin-3-yl 2-(3,5-dichlorophenyl)benzo[d]oxazole-6-carboxylate]",C (C is ≥50 to <75%)
14,CC(=O)N1CCC(OC(=O)c2ccc3nc(-c4cc(Cl)cc(Cl)c4)oc3c2)C1 (stereo not drawn) [Compound 138],A (A is <25%)
15,"COc1nc(C)c(COC(=O)c2ccc3nc(-c4cc(Cl)cc(Cl)c4)oc3c2)o1 [Compound 114, (2-methoxy-4-methyloxazol-5-yl)methyl 2-(3,5-dichlorophenyl)-benzo [d] oxazole-6-carboxylate]",A (A is <25%)
16,CN1CC(OC(=O)c2ccc3nc(-c4cc(Cl)cc(Cl)c4)oc3c2)CCC1=O (stereo not drawn) [Compound 162],B (B is ≥25 to <50%)
17,"C[N+]1([O-])CCC(OC(=O)c2ccc3nc(-c4cc(Cl)cc(Cl)c4)oc3c2)C1 (stereo not drawn) [Compound 141, 3-((2-(3,5-dichlorophenyl)benzo[d]oxazole-6-carbonyl)oxy)-1-methylpyrrolidine 1-oxide]",A (A is <25%)
18,O=CN1CCC(OC(=O)c2ccc3nc(-c4cc(Cl)cc(Cl)c4)oc3c2)C1 (stereo not drawn) [Compound 150],B (B is ≥25 to <50%)
19,"O=C(OC1CCCn2ccnc21)c1ccc2nc(-c3cc(Cl)cc(Cl)c3)oc2c1 (stereo not drawn) [Compound 155, 5,6,7,8-tetrahydroimidazo[1,2-a]pyridin-8-yl 2-(3,5-dichlorophenyl)benzo[d]oxazole-6-carboxylate]",D (D is ≥75%)
20,CCN1CCCC1COC(=O)c1ccc2nc(-c3cc(Cl)cc(Cl)c3)oc2c1 (stereo not drawn) [Compound 172],B (B is ≥25 to <50%)
21,O=C(OC1CCCC1)c1ccc2nc(-c3cc(Cl)cc(Cl)c3)oc2c1 [Compound 184],B (B is ≥25 to <50%)
22,O=C(OC1CCCN(Cc2ccccc2)C1)c1ccc2nc(-c3cc(Cl)cc(Cl)c3)oc2c1 (stereo not drawn) [Compound 164],B (B is ≥25 to <50%)
23,CN(C)[C@H]1C[C@H](OC(=O)c2ccc3nc(-c4cc(Cl)cc(Cl)c4)oc3c2)C1 [Compound 125],A (A is <25%)
24,[2H]C([2H])([2H])N1CCC(OC(=O)c2ccc3nc(-c4cc(Cl)cc(Cl)c4)oc3c2)C1 (stereo not drawn) [Compound 140],A (A is <25%)
25,O=C(OC1CCN(C2CC2)C1)c1ccc2nc(-c3cc(Cl)cc(Cl)c3)oc2c1 (stereo not drawn) [Compound 115],D (D is ≥75%)
26,CN1CC(OC(=O)c2ccc3nc(-c4cc(Cl)cc(Cl)c4)oc3c2)C1 [Compound 118],B (B is ≥25 to <50%)
27,CN(CC(F)F)C(=O)c1ccc2nc(-c3cc(Cl)cc(Cl)c3)oc2c1 [Compound 174],A (A is <25%)

# Results, then the compound that gave them:
row,Formation of tafamidis at 60 min,Compound
1,C (C is ≥50 to <75%),O=C(OCCc1ccccc1)c1ccc2nc(-c3cc(Cl)cc(Cl)c3)oc2c1 [Compound 187]
2,D (D is ≥75%),Cn1cnc(COC(=O)c2ccc3nc(-c4cc(Cl)cc(Cl)c4)oc3c2)c1 [Compound 129]
3,C (C is ≥50 to <75%),CC(OC(=O)c1ccc2nc(-c3cc(Cl)cc(Cl)c3)oc2c1)c1ncccn1 (stereo not drawn) [Compound 146]
4,D (D is ≥75%),O=C(OCCCc1cccnc1)c1ccc2nc(-c3cc(Cl)cc(Cl)c3)oc2c1 [Compound 112]
5,C (C is ≥50 to <75%),O=C(OCCc1ccncc1)c1ccc2nc(-c3cc(Cl)cc(Cl)c3)oc2c1 [Compound 110]
6,C (C is ≥50 to <75%),Cn1cncc1COC(=O)c1ccc2nc(-c3cc(Cl)cc(Cl)c3)oc2c1 [Compound 123]
7,C (C is ≥50 to <75%),O=C(OCC1CCCN1Cc1ccccc1)c1ccc2nc(-c3cc(Cl)cc(Cl)c3)oc2c1 (stereo not drawn) [Compound 165]
8,D (D is ≥75%),O=C(OCCCc1ccccn1)c1ccc2nc(-c3cc(Cl)cc(Cl)c3)oc2c1 [Compound 106]
9,D (D is ≥75%),O=C(OCCc1cccnc1)c1ccc2nc(-c3cc(Cl)cc(Cl)c3)oc2c1 [Compound 108]
10,B (B is ≥25 to <50%),Cn1ccc(CCCOC(=O)c2ccc3nc(-c4cc(Cl)cc(Cl)c4)oc3c2)n1 [Compound 104]
11,D (D is ≥75%),O=C(OCc1ccccc1)c1ccc2nc(-c3cc(Cl)cc(Cl)c3)oc2c1 [Compound 186]
12,D (D is ≥75%),O=C(OCc1cccnc1)c1ccc2nc(-c3cc(Cl)cc(Cl)c3)oc2c1 [Compound 107]
13,D (D is ≥75%),O=C(OCCCc1ccncc1)c1ccc2nc(-c3cc(Cl)cc(Cl)c3)oc2c1 [Compound 113]
14,D (D is ≥75%),O=C(OCc1cccnn1)c1ccc2nc(-c3cc(Cl)cc(Cl)c3)oc2c1 [Compound 130]
15,A (A is <25%),CN1CCC(CCOC(=O)c2ccc3nc(-c4cc(Cl)cc(Cl)c4)oc3c2)C1 (stereo not drawn) [Compound 126]
16,D (D is ≥75%),O=C(OCc1cnccn1)c1ccc2nc(-c3cc(Cl)cc(Cl)c3)oc2c1 [Compound 132]
17,C (C is ≥50 to <75%),O=C(OCc1cncnc1)c1ccc2nc(-c3cc(Cl)cc(Cl)c3)oc2c1 [Compound 133]
18,D (D is ≥75%),"O=C(OCCCc1ncccn1)c1ccc2nc(-c3cc(Cl)cc(Cl)c3)oc2c1 [Compound 148, 3-(pyrimidin-2-yl)propyl 2-(3,5-dichlorophenyl)benzo[d]oxazole-6-carboxylate]"
19,C (C is ≥50 to <75%),Cn1cc(COC(=O)c2ccc3nc(-c4cc(Cl)cc(Cl)c4)oc3c2)cn1 [Compound 128]
20,B (B is ≥25 to <50%),CC(Cc1ccncc1)OC(=O)c1ccc2nc(-c3cc(Cl)cc(Cl)c3)oc2c1 (stereo not drawn) [Compound 169]
21,C (C is ≥50 to <75%),O=C(OCc1ccnnc1)c1ccc2nc(-c3cc(Cl)cc(Cl)c3)oc2c1 [Compound 135]
22,D (D is ≥75%),O=C(OCc1ccncn1)c1ccc2nc(-c3cc(Cl)cc(Cl)c3)oc2c1 [Compound 131]
23,A (A is <25%),CN1CCCC1CCOC(=O)c1ccc2nc(-c3cc(Cl)cc(Cl)c3)oc2c1 (stereo not drawn) [Compound 122]
24,D (D is ≥75%),Cn1nccc1COC(=O)c1ccc2nc(-c3cc(Cl)cc(Cl)c3)oc2c1 [Compound 127]
25,C (C is ≥50 to <75%),O=C(OCc1ccncc1)c1ccc2nc(-c3cc(Cl)cc(Cl)c3)oc2c1 [Compound 109]
26,D (D is ≥75%),O=C(OCCc1ccccn1)c1ccc2nc(-c3cc(Cl)cc(Cl)c3)oc2c1 [Compound 105]
27,B (B is ≥25 to <50%),"CC(Cc1cccnc1)OC(=O)c1ccc2nc(-c3cc(Cl)cc(Cl)c3)oc2c1 (stereo not drawn) [Compound 168, 1-(pyridin-3-yl)propan-2-yl 2-(3,5-dichlorophenyl)benzo[d]oxazole-6-carboxylate]"
